# Laboratory results from patent US20140329776A1, “Mitochondria-Targeted Antioxidants for Treatment of Age-Related Brain Disorders” (MITOTECH S.A., priority 2011, published 2014).
# Tested on: Wistar rats
# Assay: muscle strength measurement 4 hours after ethanol narcosis
# Format: in vivo, rat
# Conditions: SkQ1 250 nM after ethanol narcosis; p<0.05
# Protocol: FIG. 6 is a graphic representation showing muscle strength measurement 4 hours after ethanol narcosis in % to intact control. *−p<0.05 to negative control, #−p<0.05 to intact control;
# In these experiments, 6 groups of experimental animals (Wistar rats) were used. (1) The Intact Control group (n=12), had no ethanol narcosis, and were orally administered a normal isotonic 0.9% NaCl solution; (2) the Negative Control group (n=12) was orally administered a normal physiological solution after ethanol narcosis; (3) The SkQ1 50 nM control group (n=12) was orally administered SkQ1 in a concentration 50 nM after ethanol narcosis; (4) The SkQ1 250 nM control group (n=12) was orally administered SkQ1 in a concentration of 250 nM after ethanol narcosis; (5) The SkQ1 1250 nM control group (n=12) was orally administered SkQ1 in a concentration of 1250 nM after ethanol narcosis; (6) the SkQ1 1250 nM intr control group (n=13) was intraperitoneally administered SkQ1 in a concentration of 1250 nM after ethanol narcosis.
# In the Negative Control group ethanol intoxication caused a decrease of locomotor activity compared to Intact Control group: decreased track length (p<0.05), movement time (p<0.05), mean speed (p<0.05) and increased immobilization time (p<0.05) (FIG. 4). […]
smiles,measurement,value
"CC1=C(C)C(=O)C(CCCCCCCCCC[P+](c2ccccc2)(c2ccccc2)c2ccccc2)=CC1=O [SkQ1, plastoquinonyl decyltriphenyl-phosphonium]",muscle strength,increasing
